Our source for the IC50 values is patent publication US10323028B2, “1,3,4-thiadiazole compounds and their use in treating cancer” (AstraZeneca AB, priority 2015, dated 2019).

What is called IC50 is the concentration needed to halve the response being measured.

Each structure is given as a SMILES string. Where two headings read alike, the source gives them in different places.

The test system of experiment [1] is NCI-H1703 cells. The experiment in a line: GLS Cell Proliferation Assay (NCI-H1703 cell proliferation). In kind it is cell-based. An excerpt: (§1) The following assays were used to measure the effects of the compounds described herein: a) GLS Enzyme Potency Assay; b) GLS Cell Potency Assay; c) GLS Cell Proliferation Assay. During the description of the assays, generally: • i. The following abbreviations have been used: CO2=Carbon dioxide; DMEM=Dulbecco's Modified Eagle Medium; DMSO=Dimethyl sulphoxide; EDTA=Ethylenediaminetetraacetic acid; EGTA=Ethylene glycol tetraacetic acid; FCS=Foetal calf serum; h=Hour(s); NBS=Non-binding surface; SDS=Sodium dodecyl sulphate; TRIS=Tris(Hydroxymethyl)aminomethane. • ii. IC50 values were calculated using a smart fitting model in Genedata.
Assay c): GLS Cell Proliferation Assay
The ability of compounds to inhibit cell growth was measured using a 384 well plate NCI-H1703 cell proliferation assay. NCI-H1703 cells were grown in phenol red free RPMI1640, 10% FCS and 2 mM glutamine and seeded at a density of 750 cells per well in 40 μl of growth medium into clear-bottom 384 well assay plates (Corning product code 3712) and incubated for 24 h at 37° C., 5% CO2. […] DMSO concentration was maintained at 0.3% by back filling with DMSO solution. Plates were incubated for 5 days at 37° C., 5% CO2, Sytox Green and Saponin added to final concentration of 2 μM and 0.25% respectively and incubated for 6 h prior to analysis. […] IC50 values were calculated by curve fitting to max inhibition of day zero growth using GeneData software analysis.

For experiment [2], the target named is GLS1 (Homo sapiens (Human), UniProt O94925). The experiment in a line: GLS Enzyme Potency Assay (Glutamate Oxidase/AmplexRed coupled assay). In kind it is biochemical.
From the text: as §1
Assay a): GLS Enzyme Potency Assay
A Glutamate Oxidase/AmplexRed coupled assay was used to measure the ability of compounds to bind to and inhibit the activity of GLS1 in vitro. […] GLS1 was diluted to 2× working concentration and incubated at room temperature to allow the tetrameric/dimeric forms to reach steady state. Assay measurements were performed in buffer comprising 50 mM TRIS pH 7.8, 100 mM NaPO4, pH 7.8, 0.001% v/v Tween20. Purified recombinant GLS1 protein was diluted in assay buffer to 12 nM and pre-incubated at room temperature for 30 minutes. […] DMSO concentration was maintained at 2% by back filling with DMSO solution. 3 μL of diluted GLS1 protein (12 nM) was then dispensed into each well using a BioRaptr automated dispenser (Beckman-Coulter) and incubated for 15 minutes at room temperature. 3 μL of 100 mM glutamine diluted in assay buffer was then added and the reaction incubated at room temperature for 60 minutes. […] An artefact version of the assay where the 6His tagged GLS protein and glutamine were replaced with assay buffer was also used to rule out non specific effects on the assay components.

Experiment [3] deals with cellular GLS activity in PC3 cells (Homo sapiens (Human), UniProt O94925). Put plainly: GLS Cell Potency Assay (PC3 coupled assay measuring cellular glutamate depletion). In kind it is cell-based. The following applies: PC3 cells, 6 h incubation, glutamate depletion; read-out: Assay b) GLS cell MOA Mean IC50.
From the text: as §1
Assay b): GLS Cell Potency Assay
Compounds were assessed for their potential to inhibit cellular GLS activity by use of a PC3 coupled assay measuring cellular glutamate depletion. […] DMSO concentration was maintained at 0.3% by back filling with DMSO solution. PC3 cells were grown in phenol free DMEM, 10% dialyzed FCS, 2 mM glutamine and following dispersal by trypsinisation were plated at 5.6×10^3 cells per well in 40 μl of growth medium directly into the 384 well assay plates containing dispensed compound. After incubation for 6 h at 37° C., 5% CO2 growth media was aspirated and cells lysed in 15 μl of buffer containing 10 mM TRIS pH7.4, 100 mM NaCl, 1 mM EDTA, 1 mM EGTA, 1 mM NaF, 20 mM Na4P2O7, 2 mM Na3VO4, 1% Triton X-100, 10% glycerol, 0.1% SDS and 0.5% deoxycholate.

Where [4] appears, read: NCI-H1703 cells, 5 days; read-out: Assay c) Prolif Mean IC50.
Setting [5] is: 6His tagged GLS protein (amino acids 63-669), recombinant; read-out: Assay a) enz IC50.
Where [6] appears, read: Homo sapiens, NCI-H1703, 120 h, NCI-H1703 cells, 5 days; read-out: Assay c) Prolif Mean IC50.

Sequence of GLS1 (O94925 63-669): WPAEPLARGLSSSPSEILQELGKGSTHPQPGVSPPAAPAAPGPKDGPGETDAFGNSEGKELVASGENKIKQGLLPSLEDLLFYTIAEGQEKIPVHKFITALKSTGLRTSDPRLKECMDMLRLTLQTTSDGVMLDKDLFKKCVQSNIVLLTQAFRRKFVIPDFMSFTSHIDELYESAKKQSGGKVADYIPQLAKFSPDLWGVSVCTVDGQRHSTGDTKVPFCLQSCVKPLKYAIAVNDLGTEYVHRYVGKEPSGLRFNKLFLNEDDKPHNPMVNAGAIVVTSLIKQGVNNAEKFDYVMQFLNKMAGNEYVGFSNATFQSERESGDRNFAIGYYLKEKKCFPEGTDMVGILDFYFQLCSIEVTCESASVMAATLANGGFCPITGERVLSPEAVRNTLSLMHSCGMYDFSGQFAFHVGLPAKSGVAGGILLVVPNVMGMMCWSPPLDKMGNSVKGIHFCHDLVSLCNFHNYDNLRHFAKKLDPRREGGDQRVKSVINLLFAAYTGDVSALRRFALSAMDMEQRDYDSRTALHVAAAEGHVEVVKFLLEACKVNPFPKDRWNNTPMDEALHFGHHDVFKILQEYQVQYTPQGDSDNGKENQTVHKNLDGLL
Sequence of cellular GLS activity in PC3 cells (O94925 73-669): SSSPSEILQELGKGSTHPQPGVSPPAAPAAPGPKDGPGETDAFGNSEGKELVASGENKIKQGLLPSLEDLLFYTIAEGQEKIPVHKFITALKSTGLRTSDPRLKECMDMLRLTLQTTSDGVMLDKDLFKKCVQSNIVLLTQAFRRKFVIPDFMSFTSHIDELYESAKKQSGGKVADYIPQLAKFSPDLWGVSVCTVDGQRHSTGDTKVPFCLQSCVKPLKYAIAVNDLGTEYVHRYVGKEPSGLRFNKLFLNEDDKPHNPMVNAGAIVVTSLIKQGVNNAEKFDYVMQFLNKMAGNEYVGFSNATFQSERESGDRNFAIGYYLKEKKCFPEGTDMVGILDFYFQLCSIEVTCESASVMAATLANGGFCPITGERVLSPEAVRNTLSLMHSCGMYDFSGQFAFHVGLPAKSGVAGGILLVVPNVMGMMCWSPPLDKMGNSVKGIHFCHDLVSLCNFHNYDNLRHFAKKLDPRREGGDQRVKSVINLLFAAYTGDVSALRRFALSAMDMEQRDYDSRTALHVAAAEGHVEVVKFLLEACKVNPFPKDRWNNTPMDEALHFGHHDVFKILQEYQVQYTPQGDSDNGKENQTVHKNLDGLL

Regarding `CO[C@H](C(=O)Nc1nnc(N[C@@H]2CCN(c3nccnn3)C2)s1)c1cccc(N2CC(F)(F)C2)c1` (single isomer, unassigned) [14(b)], the results for the concentration for half-maximal inhibition (IC50) in experiment [1] (setting [4]) and in experiment [2] (setting [5]) were 156 nM and 660 nM, respectively.
Taken in the same sequence, the figures for `CO[C@H](C(=O)Nc1nnc(N[C@@H]2CCN(c3nccnn3)C2)s1)c1cccc(N2CC(F)C2)c1` (single isomer, unassigned) [15(b)] were 376 nM and 1310 nM.
With `COc1cc(OC)cc([C@H](OC)C(=O)Nc2nnc(N[C@@H]3CCN(c4nccnn4)C3)s2)c1` (single isomer, unassigned) [16(b)], the IC50 in experiment [2] (setting [5]) was determined as 689 nM.
With `COC[C@H](C(=O)Nc1nnc(N[C@@H]2CCN(c3ccc(C)nn3)C2)s1)c1ccccc1` (single isomer, unassigned) [45(b)], the IC50 in experiment [2] (read-out: Assay a) enz IC50) stood at 146 nM; in experiment [3] it was 11.3 nM.
For the compound `CO[C@H](C(=O)Nc1nnc(N[C@@H]2CCN(c3cccnn3)C2)s1)c1cccc(N2CC(F)C2)c1` (single isomer, unassigned) [Example 1(a)], the half-inhibitory concentration (IC50) stood at 20.6 nM in experiment [2] (setting [5]) and 0.83 nM in experiment [3].
Turning to `CO[C@H](C(=O)Nc1nnc(N[C@@H]2CCN(c3cccnn3)C2)s1)c1cccc(N2CC(F)C2)c1` (single isomer, unassigned) [Example 1(b)], the concentration for half-maximal inhibition (IC50) in experiment [2] (read-out: Assay a) enz IC50) was found to be 72.6 nM; in experiment [3] it was 18.4 nM.
On to `COC1CN(c2cccc([C@H](OC)C(=O)Nc3nnc(N[C@@H]4CCN(c5nccnn5)C4)s3)c2)C1` (single isomer, unassigned) [Example 13(a)], for which, in experiment [2] (setting [5]), the half-maximal inhibitory concentration (IC50) stood at 75.1 nM.
`CO[C@H](C(=O)Nc1nnc(N[C@@H]2CCN(c3nccnn3)C2)s1)c1cccc(N2CC(F)(F)C2)c1` (single isomer, unassigned) [Example 14(a)]: the half-inhibitory concentration (IC50) in experiment [1] (setting [4]) turned out to be 5.89 nM; in experiment [2] (setting [5]), 91.5 nM.
For `CO[C@H](C(=O)Nc1nnc(N[C@@H]2CCN(c3nccnn3)C2)s1)c1cccc(N2CC(F)C2)c1` (single isomer, unassigned) [Example 15(a)], the IC50 in experiment [1] (setting [4]) was found to be 11.6 nM; in experiment [2] (setting [5]) it was 77.6 nM.
On to `COc1cc(OC)cc([C@H](OC)C(=O)Nc2nnc(N[C@@H]3CCN(c4nccnn4)C3)s2)c1` (single isomer, unassigned) [Example 16(a)], for which the 50% inhibitory concentration (IC50) in experiment [1] (setting [6]) turned out to be 3.49 nM; in experiment [2] (setting [5]), 25.2 nM.
Take `COC(C(=O)Nc1nnc(N[C@@H]2CCN(c3nccnn3)C2)s1)c1cccc(C2COC2)c1` (single isomer, unassigned) [Example 24]: the figures for the IC50 in experiment [1] (setting [4]), in experiment [2] (setting [5]) and in experiment [3] were 29.1 nM, 52.6 nM and 3.48 nM, respectively.
In the case of `COC(C(=O)Nc1nnc(N[C@@H]2CCN(c3nccnn3)C2)s1)c1cccc(C2COC2)c1` (single isomer, unassigned) [Example 25], the 50% inhibitory concentration (IC50) in experiment [1] (setting [4]) amounted to 831 nM; in experiment [2] (setting [5]), 1840 nM; in experiment [3], 86.1 nM.
`COC(C(=O)Nc1nnc(N[C@@H]2CCN(c3ccc(F)nn3)C2)s1)c1cccc(N2CC(F)C2)c1` (single isomer, unassigned) [Example 27]: the results for the IC50 in experiment [1] (setting [4]), in experiment [2] (setting [5]) and in experiment [3] were 13.5 nM, 149 nM and 1.4 nM, respectively.
Turning to `COC(C(=O)Nc1nnc(N[C@@H]2CCN(c3ccc(F)nn3)C2)s1)c1cccc(N2CC(F)C2)c1` (single isomer, unassigned) [Example 28], the values for the concentration for half-maximal inhibition (IC50) in experiment [1] (setting [4]), in experiment [2] (setting [5]) and in experiment [3] were 262 nM, 195 nM and 51.5 nM, respectively.
On to `CCOC(C(=O)Nc1nnc(N[C@@H]2CCN(c3cccnn3)C2)s1)c1cccc(N2CC(F)(F)C2)c1` (single isomer, unassigned) [Example 29], for which the IC50 in experiment [1] (setting [4]) was 1.96 nM; in experiment [2] (setting [5]), 51.1 nM; in experiment [3], 0.404 nM.
Taken in the same sequence, the figures for `CCOC(C(=O)Nc1nnc(N[C@@H]2CCN(c3cccnn3)C2)s1)c1cccc(N2CC(F)(F)C2)c1` (single isomer, unassigned) [Example 30] were 37.7 nM, 1370 nM and 3.22 nM.
Turning to `CCOC(C(=O)Nc1nnc(N[C@@H]2CCN(c3cccnn3)C2)s1)c1cccc(N2CC(F)C2)c1` (single isomer, unassigned) [Example 32], the IC50 in experiment [1] (setting [4]) is 98.7 nM; in experiment [2] (setting [5]) it was 188 nM.
As for `COCC(C(=O)Nc1nnc(N[C@@H]2CCN(c3ccc(C)nn3)C2)s1)c1ccccc1` (single isomer, unassigned) [Example 45(a)], the IC50 in experiment [2] (setting [5]) amounted to 1600 nM.
In the case of `COC[C@H](C(=O)Nc1nnc(N[C@@H]2CCN(c3ccc(C)nn3)C2)s1)c1ccccc1` (single isomer, unassigned) [Example 45(a)], the IC50 in experiment [3] came out at 147 nM.
For `CCO[C@H](C(=O)Nc1nnc(N[C@@H]2CCN(c3cccnn3)C2)s1)c1cccc(N2CC(OC)C2)c1` [Example 22(a), (2S)-2-ethoxy-2-[3-(3-methoxyazetidin-1-yl)phenyl]-N-[5-[[(3R)-1-pyridazin-3-ylpyrrolidin-3-yl]amino]-1,3,4-thiadiazol-2-yl]acetamide], the half-inhibitory concentration (IC50) in experiment [1] (setting [6]) worked out at 5.35 nM.
As to `CCO[C@@H](C(=O)Nc1nnc(N[C@@H]2CCN(c3cccnn3)C2)s1)c1cccc(N2CC(OC)C2)c1` [Example 22(b), (2R)-2-ethoxy-2-[3-(3-methoxyazetidin-1-yl)phenyl]-N-[5-[[(3R)-1-pyridazin-3-ylpyrrolidin-3-yl]amino]-1,3,4-thiadiazol-2-yl]acetamide], the concentration for half-maximal inhibition (IC50) came to 178 nM in experiment [1] (setting [6]) and 10.6 nM in experiment [3].
Take `CCOC(C(=O)Nc1nnc(N[C@@H]2CCN(c3cccnn3)C2)s1)c1cccc(N2CC(OC)C2)c1` (stereo partly drawn) [Example 33, 2-ethoxy-2-[3-(3-methoxyazetidin-1-yl)phenyl]-N-[5-[[(3R)-1-pyridazin-3-ylpyrrolidin-3-yl]amino]-1,3,4-thiadiazol-2-yl]acetamide]: the half-inhibitory concentration (IC50) in experiment [1] (setting [4]) was 5.35 nM.
With `CCOC(C(=O)Nc1nnc(N[C@@H]2CCN(c3cccnn3)C2)s1)c1cccc(N2CC(OC)C2)c1` (stereo partly drawn) [Example 34, 2-ethoxy-2-[3-(3-methoxyazetidin-1-yl)phenyl]-N-[5-[[(3R)-1-pyridazin-3-ylpyrrolidin-3-yl]amino]-1,3,4-thiadiazol-2-yl]acetamide], the concentration for half-maximal inhibition (IC50) in experiment [1] (setting [4]) was 18 nM; in experiment [3], 10.6 nM.
Take `COC(C(=O)Nc1nnc(N[C@@H]2CCN(c3cccnn3)C2)s1)c1ccc(F)c(N2CC(F)(F)C2)c1` (stereo partly drawn) [Example 38, 2-[3-(3,3-difluoroazetidin-1-yl)-4-fluoro-phenyl]-2-methoxy-N-[5-[[(3R)-1-pyridazin-3-ylpyrrolidin-3-yl]amino]-1,3,4-thiadiazol-2-yl]acetamide]: the IC50 amounted to 303 nM in experiment [1] (setting [4]) and 190 nM in experiment [2] (setting [5]).
On to `COC(C(=O)Nc1nnc(N[C@@H]2CCN(c3ccc(C)nn3)C2)s1)c1cccc(N2CC(F)(F)C2)c1` (stereo partly drawn) [Example 40, 2-[3-(3,3-difluoroazetidin-1-yl)phenyl]-2-methoxy-N-[5-[[(3R)-1-(6-methylpyridazin-3-yl)pyrrolidin-3-yl]amino]-1,3,4-thiadiazol-2-yl]acetamide], for which the IC50 in experiment [1] (setting [4]) is 82.5 nM; in experiment [2] (setting [5]) it was 311 nM.
Regarding `COC(C(=O)Nc1nnc(N[C@@H]2CCN(c3ccc(F)nn3)C2)s1)c1cccc(N2CC(F)(F)C2)c1` (stereo partly drawn) [Example 41, 2-[3-(3,3-difluoroazetidin-1-yl)phenyl]-N-[5-[[(3R)-1-(6-fluoropyridazin-3-yl)pyrrolidin-3-yl]amino]-1,3,4-thiadiazol-2-yl]-2-methoxy-acetamide], in experiment [1] (setting [4]), the IC50 stood at 1.46 nM.
